Measured values: patent US9221791B2, “Metalloenzyme inhibitor compounds” (Viamet Pharmaceuticals, Inc., priority 2011, dated 2015)
Converted amounts (≈) assume the structure as drawn.

How the values were obtained:
[1] = test system: Puccinia recondita tritici = Puccinia triticina; test: Fungicidal activity vs. leaf rust on wheat plants; type: in vivo; conditions: wheat (variety Yuma) sprayed at 50 ppm, inoculated on the following day, evaluated 7-9 days later; read-out: Puccinia Rating (% Disease Control @ 50 ppm)
Description: D. Evaluation of Fungicidal Activity Vs. Leaf Rust (Causal Agent Puccinia recondita tritici=Puccinia triticina; Bayer Code PUCCRT). […] Each pot contained 3-8 seedlings. These plants were sprayed until wet with the formulated test compounds. The compounds were formulated at 50 ppm in 10 vol. % acetone plus 90 vol. % Triton X water (deionized water 99.99 wt %+0.01 wt % Triton X100), giving a “formulated test compound.” Formulated test compounds were applied to plants using a turn table sprayer fitted with two opposing air atomization nozzles which delivered approximately 1500 L/ha of spray volume. On the following day, the leaves were inoculated with an aqueous spore suspension of Puccinia recondita tritici and the plants were kept in high humidity overnight to permit spores to germinate and infect the leaf. The plants were then transferred to a greenhouse until disease developed on untreated control plants. Disease severity was evaluated 7-9 days later, depending on the speed of disease development. In each case of Table 3, the Puccinia rating scale is as follows: […]

[2] = test system: Septoria tritici (ATCC 26517); test: Minimum Inhibitory Concentration (MIC) (Septoria tritici), CLSI-based microdilution; type: cell-based; conditions: S. tritici ATCC 26517, 22° C. for seven days, 50% reduction in growth; for MIC: Zymoseptoria tritici, ATCC26517, 168 h, read-out: Septoria Rating (MIC)
Method: C. Minimum Inhibitory Concentration (MIC) (Septoria tritici)
Compounds of the present disclosure were assessed for their ability to inhibit the growth of a common strain of the fungal plant pathogen Septoria tritici (ATCC 26517) using a procedure based on a Clinical and Laboratory Standards Institute (CLSI) microdilution assay protocol for filamentous fungi.
Stock solutions of the test compounds and standards were prepared in DMSO at 6400 μg/mL. Each stock solution was used to prepare a 2-fold dilution series ranging from 16 to 0.016 μg/mL (total of 11 compound concentrations) in RPMI-1640 (Roswell Park Memorial Institute) medium containing 3-(N-morpholino)propanesulfonic acid (MOPS) buffer and 2% DMSO. A 100 μL aliquot of the dilutions was added to columns 1 (16 μg/mL compound) through 11 (0.016 μg/mL compound) of a 96-well microtiter plate. This format was replicated in a second row of the microtiter plate. Thus, each microtiter plate could include 11 concentrations of four test or control compounds replicated twice. A 100 μL aliquot of RPMI-1640/MOPS/2% DMSO medium was added to column 12 (no compound control) of the microtiter plate.
A fresh culture of S. tritici was used to prepare a solution of approximately 5×10^4 colony-forming units per milliliter (cfu/mL) in RPMI/MOPS medium without DMSO. A 100 µL aliquot of this solution was added to all 96 wells in the microtiter plate. […] The assay plates were incubated at 22° C. for seven days in the dark without shaking.
In each case of Table 3 the Septoria rating scale is as follows: […]

SMILES	pest or weed control at 50 ppm [1]	MIC [2]	Septoria Rating (MIC) [2]
OC(Cn1cnnn1)(c1ccc(F)cc1F)C(F)(F)c1ccc(COc2ccc(C(F)(F)F)cn2)cn1 (centres unmarked) [Compound 99, 2-(2,4-difluorophenyl)-1,1-difluoro-3-(1H-tetrazol-1-yl)-1-(5-(((5-(trifluoromethyl)pyridin-2-yl)oxy)methyl)pyridin-2-yl)propan-2-ol]	80 to 100%	≤ 0.5 µg/mL	
OC(Cn1cnnn1)(c1ccc(Cl)cc1F)C(F)(F)c1ccc(C2CC2)cn1 (centres unmarked) [Compound 40, 2-(4-Chloro-2-fluorophenyl)-1-(5-cyclopropylpyridin-2-yl)-1,1-difluoro-3-(1H-tetrazol-1-yl)propan-2-ol]	80 to 100%	≤ 0.5 µg/mL	
OC(Cn1cnnn1)(c1ccc(F)cc1F)C(F)(F)c1ccc(C(F)(F)c2ccc(F)cc2)cn1 (centres unmarked) [Compound 101, 1-(5-(difluoro(4-fluorophenyl)methyl)pyridin-2-yl)-2-(2,4-difluorophenyl)-1,1-difluoro-3-(1H-tetrazol-1-yl)propan-2-ol]	80 to 100%	1.5 to 4 µg/mL (≈ 3.02 to 8.04 µM)	
OC(Cn1cnnn1)(c1ccc(F)cc1F)C(F)(F)c1ccc(Br)cn1 (centres unmarked) [Compound 1, 1-(5-Bromopyridin-2-yl)-2-(2,4-difluorophenyl)-1,1-difluoro-3-(1H-tetrazol-1-yl)propan-2-ol]	80 to 100%	≤ 0.5 µg/mL	
O=C(c1ccc(OCC(F)(F)F)cc1)c1ccc(C(F)(F)C(O)(Cn2cnnn2)c2ccc(F)cc2F)nc1 (centres unmarked) [Compound 68, (6-(2-(2,4-Difluorophenyl)-1,1-difluoro-2-hydroxy-3-(1H-tetrazol-1-yl)propyl)pyridin-3-yl)(4-(2,2,2-trifluoroethoxy)phenyl)methanone]	80 to 100%	≤ 0.5 µg/mL	
OC(Cn1cnnn1)(c1ccc(Cl)cc1F)C(F)(F)c1ccc(CC(F)(F)F)cn1 (centres unmarked) [Compound 39, 2-(4-Chloro-2-fluorophenyl)-1,1-difluoro-3-(1H-tetrazol-1-yl)-1-(5-(2,2,2-trifluoroethyl)pyridin-2-yl)propan-2-ol]	80 to 100%	≤ 0.5 µg/mL	
OC(Cn1cnnn1)(c1ccc(Cl)cc1F)C(F)(F)c1ccc(Cl)cn1 (centres unmarked) [Compound 26, 2-(4-Chloro-2-fluorophenyl)-1-(5-chloropyridin-2-yl)-1,1-difluoro-3-(1H-tetrazol-1-yl)propan-2-ol]	80 to 100%	≤ 0.5 µg/mL	
CC(C)OC/C=C/c1ccc(C(F)(F)C(O)(Cn2cnnn2)c2ccc(F)cc2F)nc1 (centres unmarked) [Compound 54, (E)-2-(2,4-Difluorophenyl)-1,1-difluoro-1-(5-(3-isopropoxyprop-1-en-1-yl)pyridin-2-yl)-3-(1H-tetrazol-1-yl)propan-2-ol]	< 40%	1.5 µg/mL (≈ 3.32 µM)	
OC(Cc1cc[nH]n1)(c1ccc(F)cc1F)C(F)(F)c1ccc(-n2ccnn2)cn1 (centres unmarked) [Compound 64, 1-(5-(1H-1,2,3-Triazol-1-yl)pyridin-2-yl)-2-(2,4-difluorophenyl)-1,1-difluoro-3-(1H-pyrazol-3-yl)propan-2-ol]		> 4 µg/mL	
OC(Cn1cnnn1)(c1ccc(F)cc1F)C(F)(F)c1ccc(-c2ccc(Br)s2)cn1 (centres unmarked) [Compound 78, 1-(5-(5-Bromothiophen-2-yl)pyridin-2-yl)-2-(2,4-difluorophenyl)-1,1-difluoro-3-(1H-tetrazol-1-yl)propan-2-ol]		≤ 0.5 µg/mL	
CC(=O)CCc1ccc(C(F)(F)C(O)(Cn2cnnn2)c2ccc(F)cc2F)nc1 (centres unmarked) [Compound 8, 4-(6-(2-(2,4-Difluorophenyl)-1,1-difluoro-2-hydroxy-3-(1H-tetrazol-1-yl)propyl)pyridin-3-yl)butan-2-one]		1.5 µg/mL (≈ 3.54 µM)	
OC(Cn1cnnn1)(c1ccc(F)cc1F)C(F)(F)c1ccc(-n2nccn2)cn1 (centres unmarked) [Compound 9, 1-(5-(2H-1,2,3-Triazol-2-yl)pyridin-2-yl)-2-(2,4-difluorophenyl)-1,1-difluoro-3-(1H-tetrazol-1-yl)propan-2-ol]		1.5 to 4 µg/mL (≈ 3.57 to 9.52 µM)	
CC(O)CCc1ccc(C(F)(F)C(O)(Cn2cnnn2)c2ccc(F)cc2F)nc1 (centres unmarked) [Compound 47, 4-(6-(2-(2,4-Difluorophenyl)-1,1-difluoro-2-hydroxy-3-(1H-tetrazol-1-yl)propyl)pyridin-3-yl)butan-2-ol]		1.5 to 4 µg/mL (≈ 3.53 to 9.4 µM)	
OC(Cn1cnnn1)(c1ccc(F)cc1F)C(F)(F)c1ccc(Cl)cn1 (centres unmarked) [Compound 12, 1-(5-Chloropyridin-2-yl)-2-(2,4-difluorophenyl)-1,1-difluoro-3-(1H-tetrazol-1-yl)propan-2-ol]		1.5 µg/mL (≈ 3.87 µM)	
OC(Cn1cnnn1)(c1ccc(F)cc1F)C(F)(F)c1ccc(-c2ccc(Cl)nc2)cn1 (stereo not drawn) [30(+), 1-(6′-Chloro-[3,3′-bipyridin]-6-yl)-2-(2,4-difluorophenyl)-1,1-difluoro-3-(1H-tetrazol-1-yl)propan-2-ol]			B (>1.5-1.5)
OC(Cn1cnnn1)(c1ccc(F)cc1F)C(F)(F)c1cc(Cl)ccn1 (centres unmarked) [Compound 14, 1-(4-Chloropyridin-2-yl)-2-(2,4-difluorophenyl)-1,1-difluoro-3-(1H-tetrazol-1-yl)propan-2-ol]		1.5 to 4 µg/mL (≈ 3.87 to 10.3 µM)	
C=CCc1ccc(C(F)(F)C(O)(Cn2cnnn2)c2ccc(F)cc2F)nc1 (centres unmarked) [Compound 61, 1-(5-Allylpyridin-2-yl)-2-(2,4-difluorophenyl)-1,1-difluoro-3-(1H-tetrazol-1-yl)propan-2-ol]		1.5 to 4 µg/mL (≈ 3.81 to 10.2 µM)	
OC(Cc1cc[nH]n1)(c1ccc(F)cc1F)C(F)(F)c1ccc(-n2nccn2)cn1 (centres unmarked) [Compound 63, 1-(5-(2H-1,2,3-Triazol-2-yl)pyridin-2-yl)-2-(2,4-difluorophenyl)-1,1-difluoro-3-(1H-pyrazol-3-yl)propan-2-ol]		1.5 µg/mL (≈ 3.59 µM)	
OC(Cn1cnnn1)(c1ccc(F)cc1F)C(F)(F)c1ccc(-c2ccc(C(F)(F)F)nc2)cn1 (centres unmarked) [Compound 35, 2-(2,4-Difluorophenyl)-1,1-difluoro-3-(1H-tetrazol-1-yl)-1-(6′-(trifluoromethyl)-[3,3′-bipyridin]-6-yl)propan-2-ol]		1.5 to 4 µg/mL (≈ 3.01 to 8.03 µM)	
OC(Cn1cnnn1)(c1ccc(F)cc1F)C(F)(F)c1ccc(N2CCCCC2)cn1 (centres unmarked) [Compound 82, 2-(2,4-Difluorophenyl)-1,1-difluoro-1-(5-(piperidin-1-yl)pyridin-2-yl)-3-(1H-tetrazol-1-yl)propan-2-ol]		1.5 to 4 µg/mL (≈ 3.44 to 9.17 µM)	
OC(Cn1cnnn1)(c1ccc(Cl)cc1F)C(F)(F)c1ccccn1 (centres unmarked) [Compound 11, 2-(4-Chloro-2-fluorophenyl)-1,1-difluoro-1-(pyridin-2-yl)-3-(1H-tetrazol-1-yl)propan-2-ol]		1.5 to 4 µg/mL (≈ 4.06 to 10.8 µM)	
CC(=O)/C=C/c1ccc(C(F)(F)C(O)(Cn2cnnn2)c2ccc(F)cc2F)nc1 (centres unmarked) [Compound 7, (E)-4-(6-(2-(2,4-Difluorophenyl)-1,1-difluoro-2-hydroxy-3-(1H-tetrazol-1-yl)propyl)pyridin-3-yl)but-3-en-2-one]		1.5 to 4 µg/mL (≈ 3.56 to 9.49 µM)	
COC/C=C/c1ccc(C(F)(F)C(O)(Cn2cnnn2)c2ccc(F)cc2F)nc1 (centres unmarked) [Compound 48, (E)-2-(2,4-Difluorophenyl)-1,1-difluoro-1-(5-(3-methoxyprop-1-en-1-yl)pyridin-2-yl)-3-(1H-tetrazol-1-yl)propan-2-ol]		1.5 µg/mL (≈ 3.54 µM)	
OC(Cn1cnnn1)(c1ccc(F)cc1F)C(F)(F)c1ccc(C(F)(F)c2ccc(Cl)cc2)cn1 (centres unmarked) [Compound 74, 1-(5-((4-Chlorophenyl)difluoromethyl)pyridin-2-yl)-2-(2,4-difluorophenyl)-1,1-difluoro-3-(1H-tetrazol-1-yl)propan-2-ol]		1.5 to 4 µg/mL (≈ 2.92 to 7.78 µM)	
